We go through ten compounds from ChEMBL document CHEMBL4325881, “Facile synthesis of 2-aryl 5-hydroxy benzo[d]oxazoles and their in vitro anti-proliferative effects on various cancer cell lines” (Bioorg Med Chem Lett, 2018).

One test has as its system A549. Description: Cytotoxicity against human A549 cells assessed as reduction in cell viability after 48 hrs by MTT assay. In kind it is functional, cell-based. Conditions: A549, 48 h. For orientation: Tetrazolium assays rely on reduction of a dye to a coloured formazan, in cell work by metabolically active cells.
Test [1] can be described thus: Cytotoxicity against human […] cells assessed as reduction in cell viability after 48 hrs by MTT assay. Format: functional, cell-based.
In a further test the test system is HeLa. The test is described as follows: Cytotoxicity against human HeLa cells assessed as reduction in cell viability after 48 hrs by MTT assay. In kind it is functional, cell-based.
The test system of another test is HepG2. The test is described as follows: Cytotoxicity against human HepG2 cells assessed as reduction in cell viability after 48 hrs by MTT assay. In kind it is functional, cell-based. Conditions: HepG2, 48 h.
The next test has as its system HaCaT. Description: Cytotoxicity against human HaCaT cells assessed as reduction in cell viability after 48 hrs by MTT assay. Format: cell-based.
A further test concerns MDA-MB-231. Description: Cytotoxicity against human MDA-MB-231 cells assessed as reduction in cell viability after 48 hrs by MTT assay. In kind it is functional, cell-based. Conditions: MDA-MB-231, 48 h.

As usually defined, the IC50 is the midpoint of a concentration-inhibition curve. Turning to `COc1cccc2c1C(=O)c1c(O)c3c(c(O)c1C2=O)C[C@@](O)(C(=O)CO)C[C@@H]3O[C@H]1C[C@H](N)[C@H](O)[C@H](C)O1` [DOXORUBICIN], the half-maximal inhibitory concentration (IC50) in the test with A549 was 0.34 µM; in test [1], 1.57 µM; with HeLa it was 0.11 µM; in the test on HepG2, 0.52 µM; in the test on HaCaT, 0.52 µM.
On to `O=Cc1c(O)ccc2oc(-c3ccccc3Cl)nc12`, for which the 50% inhibitory concentration (IC50) in the test with A549 is 7.68 µM; in test [1] it was 14 µM; in the test with MDA-MB-231, 5.66 µM; in the test with HeLa it was 14.1 µM; in the test with HepG2, 10.5 µM; in the test on HaCaT it was 12.1 µM.
As for `O=Cc1c(O)ccc2oc(-c3ccccc3[N+](=O)[O-])nc12`, the half-maximal inhibitory concentration (IC50) in the test with A549 worked out at 7.03 µM; in test [1], 18.4 µM; with MDA-MB-231 it was 9.18 µM; in the test on HeLa, 14.5 µM; in the test on HepG2, 17.4 µM; with HaCaT it was 20 µM.
On to `CC(=O)c1c(O)ccc2oc(-c3ccccc3C)nc12`, for which the IC50 in the test with A549 is 20.1 µM; in test [1], 17.5 µM; with MDA-MB-231, 30.1 µM; in the test on HeLa, 19.2 µM; in the test on HepG2, 11.7 µM; in the test with HaCaT, 8.94 µM.
For the compound `O=Cc1c(O)ccc2oc(-c3ccco3)nc12`, the IC50 (in the test on A549; in test [1]; in the test on MDA-MB-231; in the test with HeLa; with HepG2; in the test with HaCaT) was > 30 µM throughout.
For the compound `O=Cc1c(O)ccc2oc(-c3cccc4ccccc34)nc12`, the IC50 in the test on A549 came out at 28.4 µM; in test [1], 21.2 µM; with MDA-MB-231 it was 31.2 µM; in the test with HeLa, 30.1 µM; with HepG2, 27.7 µM; with HaCaT, 10.7 µM.
With `COc1ccccc1-c1nc2c(C=O)c(O)ccc2o1`, the 50% inhibitory concentration (IC50) was 2.8 µM in the test with A549; 10.4 µM in test [1]; 5.95 µM in the test on MDA-MB-231; 8.08 µM with HeLa; 10.8 µM in the test with HepG2; 8.38 µM in the test with HaCaT.
Consider `COc1cc(OC)cc(-c2nc3c(C=O)c(O)ccc3o2)c1`, for which the IC50 in the test with A549 is 30.3 µM; in test [1] it was 30.5 µM; in the test with MDA-MB-231, 34.1 µM; in the test with HeLa, 25.3 µM; with HepG2, 21.4 µM; in the test with HaCaT, 17.6 µM.
For the compound `Cc1ccccc1-c1nc2c(C=O)c(O)ccc2o1`, the IC50 in the test on A549 was found to be 2.21 µM; in test [1], 9.73 µM; with MDA-MB-231, 5.36 µM; in the test on HeLa, 15.4 µM; with HepG2, 4.74 µM; in the test with HaCaT, 12.2 µM.
`CC(=O)c1c(O)ccc2oc(-c3ccccc3)nc12`: the IC50 (with A549; in test [1]; with MDA-MB-231; in the test with HeLa; in the test on HepG2; with HaCaT) was > 30 µM in each case.
